Reference: patent publication US20010046987A1, “Oxazolidinones having a sulfoximine functionality” (priority 1999, published 2001)
Values after ≈ are worked out from the molar mass of the structure shown.

Tests used:
Moraxella catarrhalis = test: MIC by agar dilution, MCAT 30607; type: cell-based; details: for MIC: Moraxella catarrhalis, strain MCAT 30607, read-out: Antibacterial Activity Minimum Inhibitory Concentration MCAT 30607; for Antibacterial Activity Minimum Inhibitory Concentration MCAT 30607: strain MCAT 30607
Source text: (§1) The in vitro activity of compounds of this invention can be assessed by standard testing procedures such as the determination of minimum inhibitory concentration (MIC) by agar dilution as described in “Approved Standard.

Streptococcus pneumoniae = test: MIC by agar dilution, SPNE 9912; type: cell-based; details: for MIC: Streptococcus pneumoniae, strain SPNE 9912, read-out: Antibacterial Activity Minimum Inhibitory Concentration SPNE 9912; for Antibacterial Activity Minimum Inhibitory Concentration SPNE 9912: strain SPNE 9912
Source text: as §1

Staphylococcus aureus = test: MIC by agar dilution, SAUR 9213; type: cell-based; details: for MIC: Staphylococcus aureus, strain SAUR 9213, read-out: Antibacterial Activity Minimum Inhibitory Concentration SAUR 9213; for Antibacterial Activity Minimum Inhibitory Concentration SAUR 9213: strain SAUR 9213
Source text: as §1

Streptococcus pyogenes = test: MIC by agar dilution, SPYO 152; type: cell-based; details: for MIC: Streptococcus pyogenes, strain SPYO 152, read-out: Antibacterial Activity Minimum Inhibitory Concentration SPYO 152; for Antibacterial Activity Minimum Inhibitory Concentration SPYO 152: strain SPYO 152
Source text: as §1

H. influenzae = test: MIC by agar dilution, HINF 30063; type: cell-based; details: for MIC: Haemophilus influenzae, strain HINF 30063, read-out: Antibacterial Activity Minimum Inhibitory Concentration HINF 30063; for Antibacterial Activity Minimum Inhibitory Concentration HINF 30063: strain HINF 30063
Source text: as §1

[1] = system: Staphylococcus epidermidis; test: MIC by agar dilution, SEPI 30593; type: cell-based; details: for MIC: Staphylococcus epidermidis, strain SEPI 30593, read-out: Antibacterial Activity Minimum Inhibitory Concentration SEPI 30593; for Antibacterial Activity Minimum Inhibitory Concentration SEPI 30593: strain SEPI 30593
Source text: as §1

Enterococcus faecium = test: MIC by agar dilution, EFAE 12712; type: cell-based; details: for MIC: Enterococcus faecium, strain EFAE 12712, read-out: Antibacterial Activity Minimum Inhibitory Concentration EFAE 12712; for Antibacterial Activity Minimum Inhibitory Concentration EFAE 12712: strain EFAE 12712
Source text: as §1

Enterococcus faecalis = test: MIC by agar dilution, EFAE 9217; type: cell-based; details: for MIC: Enterococcus faecalis, strain EFAE 9217, read-out: Antibacterial Activity Minimum Inhibitory Concentration EFAE 9217; for Antibacterial Activity Minimum Inhibitory Concentration EFAE 9217: strain EFAE 9217
Source text: as §1

| SMILES | MIC (Moraxella catarrhalis) | MIC (Streptococcus pneumoniae) | melting point | MIC (Staphylococcus aureus) | MIC (Streptococcus pyogenes) | MIC (H. influenzae) | MIC [1] | MIC (Enterococcus faecium) | MIC (Enterococcus faecalis) | Antibacterial Activity Minimum Inhibitory Concentration MCAT 30607 (Moraxella catarrhalis) | Antibacterial Activity Minimum Inhibitory Concentration SPNE 9912 (Streptococcus pneumoniae) | Antibacterial Activity Minimum Inhibitory Concentration SAUR 9213 (Staphylococcus aureus) | Antibacterial Activity Minimum Inhibitory Concentration SPYO 152 (Streptococcus pyogenes) | Antibacterial Activity Minimum Inhibitory Concentration HINF 30063 (H. influenzae) | Antibacterial Activity Minimum Inhibitory Concentration SEPI 30593 [1] | Antibacterial Activity Minimum Inhibitory Concentration EFAE 12712 (Enterococcus faecium) | Antibacterial Activity Minimum Inhibitory Concentration EFAE 9217 (Enterococcus faecalis) |
| --- | --- | --- | --- | --- | --- | --- | --- | --- | --- | --- | --- | --- | --- | --- | --- | --- | --- |
| CCC(=S)NC[C@H]1CN(c2ccc(N3CCS(=N)(=O)CC3)c(F)c2)C(=O)O1 [Example 2, N-({(5S)-3-[3-Fluoro-4-(1-imino-1-oxido-1λ^4,4-thiazinan-4-yl)phenyl]-2-oxo-1,3-oxazolidin-5-yl}methyl)propanethioamide] | 2 µg/mL (≈ 4.82 µM) | 0.25 µg/mL (≈ 0.603 µM) | 189 to 190 °C | 1 µg/mL (≈ 2.41 µM) | 0.25 µg/mL (≈ 0.603 µM) | 2 µg/mL (≈ 4.82 µM) | 0.25 µg/mL (≈ 0.603 µM) | 0.5 µg/mL (≈ 1.21 µM) | 0.5 µg/mL (≈ 1.21 µM) |  |  |  |  |  |  |  |  |
| CCC(=S)NC[C@H]1CN(c2ccc([C@H]3CC[S@+2]([O-])([N-]C)CC3)c(F)c2)C(=O)O1 [Example 13, N-({(5S)-3-[3-Fluoro-4-[1-(methylimino)-1-oxidohexahydro-1λ^4-thiopyran-4-yl]phenyl]-2-oxo-1,3-oxazolidin-5-yl}methyl)propanethioamide, Z-isomer] | 2 µg/mL (≈ 4.68 µM) | 0.25 µg/mL (≈ 0.585 µM) |  | 1 µg/mL (≈ 2.34 µM) | 0.25 µg/mL (≈ 0.585 µM) | 8 µg/mL (≈ 18.7 µM) | 0.5 µg/mL (≈ 1.17 µM) | 1 µg/mL (≈ 2.34 µM) | 0.5 µg/mL (≈ 1.17 µM) |  |  |  |  |  |  |  |  |
| CCC(=S)NCC1CN(c2ccc(C3CC[S+2]([O-])([N-]C(=O)OC)CC3)c(F)c2)C(=O)O1 [Example 19, N-({(5S)-3-[3-Fluoro-4-(1-[(methoxycarbonyl)imino]-1-oxidohexahydro-1λ^4-thiopyran-4-yl)phenyl]-2-oxo-1,3-oxazolidin-5-yl}methyl)propanethioamide, Z-isomer] | 2 µg/mL (≈ 4.24 µM) | 0.25 µg/mL (≈ 0.53 µM) | 217 to 218 °C | 1 µg/mL (≈ 2.12 µM) | 0.25 µg/mL (≈ 0.53 µM) | 2 µg/mL (≈ 4.24 µM) | 0.5 µg/mL (≈ 1.06 µM) | 1 µg/mL (≈ 2.12 µM) |  |  |  |  |  |  |  |  |  |
| CCC(=S)NC[C@H]1CN(c2ccc(N3CCS(=O)(=NC)CC3)c(F)c2)C(=O)O1 [Example 25, N-[((5S)-3-{3-Fluoro-4-[1-(methylimino)-1-oxido-1λ^4,4-thiazinan-4-yl]phenyl}-2-oxo-1,3-oxazolidin-5-yl)methyl]propanethioamide] | 4 µg/mL (≈ 9.33 µM) | 0.25 µg/mL (≈ 0.583 µM) |  | 2 µg/mL (≈ 4.67 µM) | 0.5 µg/mL (≈ 1.17 µM) | 4 µg/mL (≈ 9.33 µM) | 0.5 µg/mL (≈ 1.17 µM) | 1 µg/mL (≈ 2.33 µM) | 1 µg/mL (≈ 2.33 µM) |  |  |  |  |  |  |  |  |
| CN=S1(=O)CCN(c2ccc(N3C[C@H](CNC(=S)C4CC4)OC3=O)cc2F)CC1 [Example 26, N-[((5S)-3-{3-Fluoro-4-[1-(methylimino)-1-oxido-1λ^4,4-thiazinan-4-yl]phenyl}-2-oxo-1,3-oxazolidin-5-yl)methyl]cyclopropanecarbothioamide] | 2 µg/mL (≈ 4.54 µM) | 0.25 µg/mL (≈ 0.567 µM) |  | 2 µg/mL (≈ 4.54 µM) | 0.5 µg/mL (≈ 1.13 µM) | 4 µg/mL (≈ 9.08 µM) | 0.5 µg/mL (≈ 1.13 µM) | 1 µg/mL (≈ 2.27 µM) | 0.5 µg/mL (≈ 1.13 µM) |  |  |  |  |  |  |  |  |
| CCC(=S)NC[C@H]1CN(c2ccc(N3CCS(=O)(=NC(=O)OC)CC3)c(F)c2)C(=O)O1 [Example 27, N-[((5S)-3-{3-Fluoro-4-(1-[(methoxycarbonyl)imino]-1-oxido-1λ^4,4-thiazinan-4-yl)phenyl}-2-oxo-1,3-oxazolidin-5-yl)methyl]propanethioamide] |  |  |  |  |  |  |  |  |  | 8 µg/mL | 0.125 µg/mL | 2 µg/mL | 0.5 µg/mL | 4 µg/mL | 0.5 µg/mL | 0.5 µg/mL | 0.5 µg/mL |
| COC(=O)N=S1(=O)CCN(c2ccc(N3C[C@H](CNC(=S)C4CC4)OC3=O)cc2F)CC1 [Example 28, N-[((5S)-3-{3-Fluoro-4-(1-[(methoxycarbonyl)imino]-1-oxido-1λ^4,4-thiazinan-4-yl)phenyl}-2-oxo-1,3-oxazolidin-5-yl)methyl]cyclopropanecarbothioamide] |  |  |  |  |  |  |  |  |  | 2 µg/mL | 0.25 µg/mL | 2 µg/mL | 0.5 µg/mL | 4 µg/mL | 0.5 µg/mL | 1 µg/mL | 1 µg/mL |
| C[N-][S+2]1([O-])CCC(c2ccc(N3CC(CNC(=S)C4CC4)OC3=O)cc2F)CC1 [Example 31, N-[((5S)-3-{3-Fluoro-4-[1-(methylimino)-1-oxidohexahydro-1λ^4-thiopyran-4-yl]phenyl}-2-oxo-1,3-oxazolidin-5-yl)methyl]cyclopropanecarbothioamide, E-isomer] |  |  |  |  |  |  |  |  |  | 4 µg/mL | 0.5 µg/mL | 2 µg/mL | 1 µg/mL | 8 µg/mL | 1 µg/mL | 2 µg/mL | 1 µg/mL |
| CCC(=S)NCC1CN(c2ccc(C3CC[S+2]([O-])([N-]C)CC3)c(F)c2)C(=O)O1 [Example 32, N-[((5S)-3-{3-Fluoro-4-[1-(methylimino)-1-oxidohexahydro-1λ^4-thiopyran-4-yl]phenyl}-2-oxo-1,3-oxazolidin-5-yl)methyl]propanethioamide, E-isomer] | 8 µg/mL (≈ 18.7 µM) | 0.5 µg/mL (≈ 1.17 µM) |  | 4 µg/mL (≈ 9.36 µM) | 1 µg/mL (≈ 2.34 µM) | 8 µg/mL (≈ 18.7 µM) | 1 µg/mL (≈ 2.34 µM) | 2 µg/mL (≈ 4.68 µM) | 2 µg/mL (≈ 4.68 µM) |  |  |  |  |  |  |  |  |
| CC(=O)NC[C@H]1CN(c2ccc(N3CCS(=N)(=O)CC3)c(F)c2)C(=O)O1 [PREP 1, N-({(5S)-3-[3-Fluoro-4-(1-imino-1-oxido-1λ^4,4-thiazinan-4-yl)phenyl]-2-oxo-1,3-oxazolidin-5-yl}methyl)acetamide] |  |  |  |  |  |  |  |  |  | 8 µg/mL | 1 µg/mL | 16 µg/mL | 2 µg/mL | 16 µg/mL | 4 µg/mL | 4 µg/mL | 8 µg/mL |
| CC(=O)N=S1(=O)CCN(c2ccc(N3C[C@H](CNC(C)=O)OC3=O)cc2F)CC1 [PREP 2, N-({(5S)-3-[3-Fluoro-4-(1-acetylimino-1-oxido-1λ^4,4-thiazinan-4-yl)phenyl]-2-oxo-1,3-oxazolidin-5-yl}methyl)acetamide] |  |  |  |  |  |  |  |  |  | 8 µg/mL | 1 µg/mL | 16 µg/mL | 2 µg/mL | 32 µg/mL | 2 µg/mL | 4 µg/mL | 2 µg/mL |
| CN=S1(=O)CCN(c2ccc(N3C[C@H](CNC(C)=O)OC3=O)cc2F)CC1 [PREP 3, N-({(5S)-3-[3-Fluoro-4-(1-methylimino-1-oxido-1λ^4,4-thiazinan-4-yl)phenyl]-2-oxo-1,3-oxazolidin-5-yl}methyl)acetamide] |  |  |  |  |  |  |  |  |  | 8 µg/mL | 1 µg/mL | 16 µg/mL | 2 µg/mL | 16 µg/mL | 2 µg/mL | 4 µg/mL | 4 µg/mL |
